Reference: patent US20160185774A1, “Anti-Infective Compounds” (priority 2013, published 2016)
Values after ≈ are worked out from the molar mass of the structure shown.

Experiments:
M. tuberculosis = assay: microbe, parasite or virus in culture; format: cell-based; conditions: Mycobacterium tuberculosis, 120 h; read-out: QUM (MIC80)
M. tuberculosis H37Rv = assay: In vivo activity in a murine model of acute tuberculosis infection (lung CFU); conditions: 50 mg/kg orally once daily, 3 days of treatment starting at day 6, female BalbC mice
Protocol: The effect of compounds 171 and 175 on the bacterial load of TB-infected mice was compared to that of the reference compound Isoniazid (INH). 8-week old female BalbC mice were infected with 8×10^6 M. tuberculosis H37Rv via intranasal inoculation. Mice were sacrificed at day 1 to control the number of CFU in the lungs. In the acute model of infection, mice were treated for 3 days, starting at day 6. Compounds were freshly dissolved in a 20% d-α-tocopheryl polyethylene glycol 1000 succinate (ETPGS) solution and administered by oral gavage as single dose per day. Bacterial load was assessed in lungs after homogenizing the organs in 1×PBS. Serial dilutions of organs homogenates were spread on Middlebrook 7H11 plates and CFU were determined after 3 weeks incubation at 37° C. under 5% CO2.

SMILES	MIC80 (M. tuberculosis) [µM]	melting point	CFU in the lungs compared to untreated mice (M. tuberculosis H37Rv)
CCc1nc2ccc(Cl)cn2c1C(=O)NCc1cc2cc(Cl)ccc2s1 [Compound 256]	< 1	> 220 °C	–
CCc1nc2ccc(Cl)cn2c1C(=O)NCc1nc2ccc(Cl)cc2s1 [Compound 266]	1 to 20 (≈ 0.405 to 8.11 µg/mL)	> 220 °C	–
CCc1nc2cc(Cl)ccn2c1C(=O)NCc1ccc(CN2CCOC2=O)cc1 [Compound 283]	1 to 20 (≈ 0.413 to 8.26 µg/mL)	172 °C	–
CCc1nc2cc(Cl)ccn2c1C(=O)NCc1ccc(C2CCOCC2)cc1 [Compound 259]	< 1	> 156.6 °C (dec.)	–
Cc1ccc2nc(C)c(C(=O)NCc3ccc(N4CCC(c5ccc(OC(F)(F)F)cc5)CC4)cc3)n2c1 [Compound 296]	< 1	184 °C	–
CCc1nc2ccccn2c1C(=O)NCc1ccc(N(C)c2ccc(OC(F)(F)F)cc2)cc1 [Compound 288]	< 1	120 °C	–
CCc1nc2ccc(Cl)cn2c1C(=O)NCc1nc2cc(Cl)ccc2n1C [Compound 263]	> 20	> 220 °C	–
CCc1nc2ccc(Cl)cn2c1C(=O)NCc1nc2ccc(Cl)cc2o1 [Compound 264]	1 to 20 (≈ 0.389 to 7.78 µg/mL)	201.1 to 201.8 °C	–
CCc1nc2ccccn2c1C(=O)NCc1ccc(C2CCOCC2)cc1 [Compound 257]	< 1	> 133.7 °C (dec.)	–
CCc1nc2ccc(Cl)cn2c1C(=O)NCc1ccc(CN2CCOCC2)cc1 [Compound 284]	< 1	133 °C	–
CCc1nc2ccc(Cl)cn2c1C(=O)NCc1ccc(CN2CCOC2=O)cc1 [Compound 282]	1 to 20 (≈ 0.413 to 8.26 µg/mL)	179 °C	–
COc1ccc2nc(C)c(C(=O)NCc3ccc(N4CCC(c5ccc(OC(F)(F)F)cc5)CC4)cc3)n2c1 [Compound 292]	< 1	183 °C	–
CCc1nc2ccc(Cl)cn2c1C(=O)NCc1cccc(N2CCC(c3ccc(OC(F)(F)F)cc3)CC2)c1 [Compound 249]	> 20	135.5 to 136.4 °C	–
CCc1nc2cc(Cl)ccn2c1C(=O)NCc1nc2cc(-c3ccc(OC(F)(F)F)cc3)ccc2o1 [Compound 265]	1 to 20 (≈ 0.515 to 10.3 µg/mL)	> 220 °C	–
CCc1nc2ccc(Cl)cn2c1C(=O)NCc1cccc(N2CCC(Oc3ccc(OC(F)(F)F)cc3)CC2)c1 [Compound 255]	> 20	126.3 to 127.2 °C	–
CCc1nc2ccc(Cl)cn2c1C(=O)NCc1cccc(CC(=O)Nc2ccc(F)cc2)c1 [Compound 250]	> 20	> 198.8 °C (dec.)	–
CCc1nc2c(F)cccn2c1C(=O)NCc1ccc(N2CCC(c3ccc(OC(F)(F)F)cc3)CC2)cc1 [Compound 268]	< 1	> 177.7 °C (dec.)	–
CCc1nc2ccc(Cl)cn2c1C(=O)NCc1cc2cc(Cl)ccc2o1 [Compound 261]	< 1	223.5 to 225.6 °C	–
CCc1nc2cc(Cl)ccn2c1C(=O)NCc1ccc(N2CC(Cc3ccc(F)cc3)OC2=O)cc1 (stereo not drawn) [Compound 270]	< 1	> 96.9 °C (dec.)	–
CCc1nc2ccc(Cl)cn2c1C(=O)NCc1cccc(N(C)Cc2ccc(OC(F)(F)F)cc2)c1 [Compound 247]	1 to 20 (≈ 0.517 to 10.3 µg/mL)	> 142.3 °C (dec.)	–

SMILES	MIC80 (M. tuberculosis) [µM]	melting point	CFU in the lungs compared to untreated mice (M. tuberculosis H37Rv)
CCc1nc2cc(Cl)ccn2c1C(=O)NCc1ccc(N2CC(COc3ccc(F)cc3)OC2=O)cc1 (stereo not drawn) [Compound 271]	1 to 20 (≈ 0.523 to 10.5 µg/mL)	> 97.1 °C	–
Cc1ccc2nc(C)c(C(=O)NCc3ccc(N4CCC(c5ccc(Cl)cc5)CC4)cc3)n2c1 [Compound 294]	< 1	188 °C	–
CCc1nc2cc(Cl)ccn2c1C(=O)NCc1ccc(N(C)c2ccc(OC(F)(F)F)cc2)cc1 [Compound 287]	< 1	134 °C	–
CCc1nc2ccc(Cl)cn2c1C(=O)NCc1ccc(N(C)c2ccc(OC(F)(F)F)cc2)cc1 [Compound 286]	< 1	138 °C	–
CCc1nc2ccc(Cl)cn2c1C(=O)NCc1ccc(N2CCC(C(=O)Cc3ccc(F)cc3)CC2)cc1 [Compound 244]	–	216.2 to 220.7 °C	–
COc1ccc2nc(C)c(C(=O)NCc3ccc(N4CCC(c5ccc(F)cc5)CC4)cc3)n2c1 [Compound 289]	< 1	192 °C	–
CCc1nc2ccc(Cl)cn2c1C(=O)NCc1ccc(CC2CCOCC2)cc1 [Compound 253]	< 1	132.2 to 133 °C	–
COc1ccc2nc(C)c(C(=O)NCc3ccc(N4CCC(c5ccc(C)cc5)CC4)cc3)n2c1 [Compound 290]	< 1	178 °C	–
COc1ccc(C2CCN(c3ccc(CNC(=O)c4c(C)nc5ccc(C)cn45)cc3)CC2)cc1 [Compound 295]	< 1	184 °C	–
CCc1nc2ccc(Cl)cn2c1C(=O)NCc1cccc(OCc2ccc(OC(F)(F)F)cc2)c1 [Compound 248]	1 to 20 (≈ 0.504 to 10.1 µg/mL)	> 142.7 °C (dec.)	–
CCc1nc2ccc(Cl)cn2c1C(=O)NCc1ccc(C2CCOCC2)cc1 [Compound 258]	< 1	> 195.5 °C (dec.)	–
CCc1nc2cc(Cl)ccn2c1C(=O)NCc1ccc(CC2CCOCC2)cc1 [Compound 254]	< 1	> 125.9 °C (dec.)	–
CCc1nc2ccc(Cl)cn2c1C(=O)NCc1cccc(N2CCN(c3ccc(OC(F)(F)F)cc3)CC2)c1 [Compound 251]	1 to 20 (≈ 0.558 to 11.2 µg/mL)	> 168 °C (dec.)	–
CCc1nc2cc(F)ccn2c1C(=O)NCc1ccc(N2CCC(c3ccc(OC(F)(F)F)cc3)CC2)cc1 [Compound 175]	< 1	–	reduction of CFU compared to untreated mice
CCc1nc2ccc(F)cn2c1C(=O)NCc1ccc(N2CCC(c3ccc(OC(F)(F)F)cc3)CC2)cc1 [Compound 267]	< 1	> 167.9 °C (dec.)	–
CCc1nc2ccc(Cl)cn2c1C(=O)NCc1nc2ccc(Cl)cc2n1C [Compound 262]	> 20	> 220 °C	–
CCc1nc2cc(Cl)ccn2c1C(=O)NCc1nc2ccc(-c3ccc(OC(F)(F)F)cc3)cc2o1 [Compound 269]	< 1	> 220 °C	–
COc1ccc2nc(C)c(C(=O)NCc3ccc(N4CCC(c5ccc(C(F)(F)F)cc5)CC4)cc3)n2c1 [Compound 291]	< 1	207 °C	–
CCc1nc2cc(Cl)ccn2c1C(=O)NCc1ccc(CN2CCOCC2)cc1 [Compound 285]	< 1	107 °C	–
CCc1nc2ccccn2c1C(=O)NCc1ccc(N2CCC(c3ccc(C)cc3)CC2)cc1 [Compound 157]	< 1	–	–

SMILES	MIC80 (M. tuberculosis) [µM]	melting point	CFU in the lungs compared to untreated mice (M. tuberculosis H37Rv)
Cc1nc2cc(Cl)ccn2c1C(=O)NCc1ccc(N2CCC(c3ccc(OC(F)(F)F)cc3)CC2)cc1 [Compound 300]	< 1	–	–
CCc1nc2ccc(OC)cn2c1C(=O)NCc1ccc(N2CCC(c3ccc(OC(F)(F)F)cc3)CC2)cc1 [Compound 182]	< 1	–	–
CCc1nc2cc(C)ccn2c1C(=O)NCc1ccc(N2CCC(c3ccc(OC(F)(F)F)cc3)CC2)cc1 [Compound 171]	< 1	–	reduction of CFU compared to untreated mice
CCc1nc2ccc(F)cn2c1C(=O)NCc1ccc(N2CCN(c3ccccc3)CC2)cc1 [Compound 71]	< 1	–	–
CCc1nc2cc(C(F)(F)F)ccn2c1C(=O)NCc1ccc(N2CCC(c3ccc(OC)cc3)CC2)cc1 [Compound 124]	< 1	–	–
CCc1nc2ccc(Cl)cn2c1C(=O)NCc1nc2ccc(Cl)cc2[nH]1 [Compound 260]	> 20	–	–
CCc1nc2ccc(Cl)cn2c1C(=O)NCc1ccc(OCC23CC4CC(CC(C4)C2)C3)cc1 [Compound 319]	< 1	–	–
CCc1nc2cc(C(F)(F)F)ccn2c1C(=O)NCc1ccc(N2CCN(c3ccc(OC)cc3)CC2)cc1 [Compound 96]	< 1	–	–
CCc1nc2ccc(Cl)cn2c1C(=O)NCc1ccc(N2CC[C@H](Oc3ccc(Cl)cc3)C2)cc1 [Compound 342]	< 1	–	–
Cc1nc2ccc(Cl)cn2c1C(=O)NCc1ccc(N2CCC(c3ccc(OC(F)(F)F)cc3)CC2)cc1 [Compound 328]	< 1	–	–
CCc1nc2cc(Cl)ccn2c1C(=O)NCc1ccc2ncn(Cc3ccc(OC(F)(F)F)cc3)c2c1 [Compound 275]	> 20	–	–
CCc1nc2cc(Cl)ccn2c1C(=O)NCc1ccc(N2CC[C@@H](Oc3ccc(Cl)cc3)C2)cc1 [Compound 341]	< 1	–	–
Cc1nc2cc(Cl)ccn2c1C(=O)NCc1ccc(N2CCC(c3ccc(F)cc3)CC2)cc1 [Compound 297]	< 1	–	–
CCc1nc2ccc(C(F)(F)F)cn2c1C(=O)NCc1ccc(N2CCN(c3ccc(F)cc3)CC2)cc1 [Compound 87]	< 1	–	–
CCc1nc2cc(Br)ccn2c1C(=O)NCc1ccc(N2CCC(c3ccc(OC(F)(F)F)cc3)CC2)cc1 [Compound 191]	< 1	–	–
CCc1nc2c(F)cccn2c1C(=O)NCc1ccc(N2CCN(c3ccc(C)cc3)CC2)cc1 [Compound 31]	< 1	–	–
CCc1nc2cc(C)ccn2c1C(=O)NCc1ccc(N2CCN(c3ccc(OC)cc3)CC2)cc1 [Compound 54]	< 1	–	–
CCc1nc2cc(OC)ccn2c1C(=O)NCc1ccc(N2CCC(c3ccc(F)cc3)CC2)cc1 [Compound 20]	< 1	–	–
Cc1ccc2nc(C)c(C(=O)NCc3ccc(N4CCC(c5ccc(F)cc5)CC4)cc3)n2c1 [Compound 293]	< 1	181 °C	–
